Entries after “also recorded” stand apart in the source; their conditions may differ.
Columns and labels:
[1] = Iron excretion in urine after oral dosing, sample in ml (Table 3); assay type: in vivo, rats; conditions: one gram sample of 15% iron
Procedure: (§1) Bioavailability: One gram samples of each of the above iron vanillin chelates and ferrous sulfate sales were administered orally to rats as a slurry consisting of one gram of sample contained in 4 ml of water. The samples were given via a syringe fitted with a balled needle and injected into the stomach of the animals. Each one gram sample of 15% iron would deliver 150 mg of Fe which is ten times the recommended daily allowance of iron for a human being of average size. Obviously, such a dosage is many times higher than required for the test animals considering that the rats weighed an average of about 125 grams each. One sample of two grams of chelate suspended as a slurry in 8 ml of water was found too be too much volume and overfilled the stomach of the rat resulting in the loss of some of the dosage.
(§2) The animals were observed over a two day (48 hour) period and their urine and feces were collected. At the end of the 48 hour period the animals were sacrificed and blood samples were taken.
(§3) There follows a comparison of the urine, feces and blood tests taken from the rats at 24 and 48 hours post dosage.

[2] = Iron excretion after oral dosing, sample weighed in grams (Table 2, headed Urine; evidently feces); assay type: in vivo, rats; conditions: for Urine: Total Mg Fe (per Total Gm Sample): oral, one gram sample of 15% iron
Procedure: as §1, §2, §3

Rats = assay: Observation of rats over 48 hours after oral dosing; assay type: in vivo
Procedure: as §1, §2

Urine: Total Mg Fe (per Total Ml Sample) ([1]; 24 hours): 0.020 Mg Fe | Urine: Total Mg Fe (per Total Ml Sample) ([1]; 48 hours): 0.010 Mg Fe | Urine: Total Mg Fe (per Total Gm Sample) ([2]; 24 hours): 1.18 Mg Fe | Urine: Total Mg Fe (per Total Gm Sample) ([2]; 48 hours): 61.6 Mg Fe | time without food or water consumption post dosage (Rats; one gram sample of 15% iron, oral): approximately 26 hours | time to hematuria following dosage (Rats; one of the ferrous sulfate fed rats): ≤ 2.5 h
Substance: ferrous sulfate [FeSO4]
excretion of iron in the feces ([2]; after 48 hours, versus iron vanillate): much higher excretion of iron in the feces | appearance and behavior of rats (Rats; 48 hour period, one gram sample of 15% iron, oral): appeared listless and produced little urine and feces; also recorded: listless, non-reactive, retired and demonstrated abnormal breathing behavior

Reference: US5596016A, “1,2-disubstituted aromatic chelates” (Albion International, Inc., priority 1994, dated 1997)
